Laboratory results taken from ChEMBL document CHEMBL1137017, “In vitro antiviral activity and cross-resistance profile of PL-100, a novel protease inhibitor of human immunodeficiency virus type 1” (Antimicrob Agents Chemother, 2007).

How the values were obtained:
[1] = tested on: Human immunodeficiency virus 1; test: Resistance index, ratio of EC50 for HIV1 with protease 46I/50L/54V/82A mutation to EC50 for wild type HIV1 NL4-3 in HEK293 cells after 48 hrs by replication-deffective luciferase reporter gene-based phenotypic assay; type: functional
[2] = tested on: Human immunodeficiency virus 1; test: Resistance index, ratio of EC50 for HIV1 with protease 37S/41K/70E mutation to EC50 for wild type HIV1 NL4-3 in HEK293 cells after 48 hrs by replication-deffective luciferase reporter gene-based phenotypic assay; type: functional
[3] = tested on: Human immunodeficiency virus 1; test: Resistance index, ratio of EC50 for HIV1 with protease 46I/53L/82T/90M mutation to EC50 for wild type HIV1 NL4-3 in HEK293 cells after 48 hrs by replication-deffective luciferase reporter gene-based phenotypic assay; type: functional
[4] = tested on: Human immunodeficiency virus 1; test: Resistance index, ratio of EC50 for HIV1 with protease 54V/84V mutation to EC50 for wild type HIV1 NL4-3 in HEK293 cells after 48 hrs by replication-deffective luciferase reporter gene-based phenotypic assay; type: functional
[5] = tested on: Human immunodeficiency virus 1; test: Resistance index, ratio of EC50 for HIV1 with protease 46L mutation to EC50 for wild type HIV1 NL4-3 in HEK293 cells after 48 hrs by replication-deffective luciferase reporter gene-based phenotypic assay; type: functional
[6] = tested on: Human immunodeficiency virus 1; test: Resistance index, ratio of EC50 for HIV1 with protease 46I/50V/54V mutation to EC50 for wild type HIV1 NL4-3 in HEK293 cells after 48 hrs by replication-deffective luciferase reporter gene-based phenotypic assay; type: functional
Protease = Protease (Human immunodeficiency virus 1, UniProt Q9YQ12); test: Inhibition of HIV1 protease
Protease, sequence (Q9YQ12 whole entry): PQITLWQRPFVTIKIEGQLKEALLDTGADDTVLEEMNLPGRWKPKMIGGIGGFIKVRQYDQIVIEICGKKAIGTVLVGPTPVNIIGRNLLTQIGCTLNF

[7] = tested on: Human immunodeficiency virus 1; test: Antiviral activity against wild type HIV1 NL4-3 infected in MT4 cells after 6 days by MTT assay; type: functional, organism-based; settings: Human immunodeficiency virus 1, NL4-3, MT4, 144 h
[8] = Cytotoxicity against human MT4 cells after 6 days by MTT assay; type: cell-based
[9] = tested on: Human immunodeficiency virus 1; test: Antiviral activity against wild type HIV1 NL4-3 in HEK293 cells after 48 hrs by replication-deffective luciferase reporter gene-based phenotypic assay; type: functional, organism-based; settings: Human immunodeficiency virus 1, NL4-3, HEK293, 48 h
[10] = tested on: Human immunodeficiency virus 1; test: Resistance index, ratio of EC50 for HIV1 with protease 54V/82A/84V/90M mutation to EC50 for wild type HIV1 NL4-3 in HEK293 cells after 48 hrs by replication-deffective luciferase reporter gene-based phenotypic assay; type: functional
[11] = tested on: Human immunodeficiency virus 1; test: Resistance index, ratio of EC50 for HIV1 with protease 46I/82T/84V/90M mutation to EC50 for wild type HIV1 NL4-3 in HEK293 cells after 48 hrs by replication-deffective luciferase reporter gene-based phenotypic assay; type: functional
[12] = tested on: Human immunodeficiency virus 1; test: Resistance index, ratio of EC50 for HIV1 with protease 33I/46I/84V/88D/90M mutation to EC50 for wild type HIV1 NL4-3 in HEK293 cells after 48 hrs by replication-deffective luciferase reporter gene-based phenotypic assay; type: functional
[13] = tested on: Human immunodeficiency virus 1; test: Resistance index, ratio of EC50 for HIV1 with protease 48V/54V/82A/90M mutation to EC50 for wild type HIV1 NL4-3 in HEK293 cells after 48 hrs by replication-deffective luciferase reporter gene-based phenotypic assay; type: functional
[14] = tested on: Human immunodeficiency virus 1; test: Resistance index, ratio of EC50 for HIV1 with protease 46I/47A/84V mutation to EC50 for wild type HIV1 NL4-3 in HEK293 cells after 48 hrs by replication-deffective luciferase reporter gene-based phenotypic assay; type: functional
[15] = tested on: Human immunodeficiency virus 1; test: Resistance index, ratio of EC50 for HIV1 with protease 46I/88S mutation to EC50 for wild type HIV1 NL4-3 in HEK293 cells after 48 hrs by replication-deffective luciferase reporter gene-based phenotypic assay; type: functional
[16] = tested on: Human immunodeficiency virus 1; test: Resistance index, ratio of EC50 for HIV1 with protease 33F/54L/88S/90M mutation to EC50 for wild type HIV1 NL4-3 in HEK293 cells after 48 hrs by replication-deffective luciferase reporter gene-based phenotypic assay; type: functional
[17] = tested on: Human immunodeficiency virus 1; test: Resistance index, ratio of EC50 for HIV1 with protease 33F/46I/84V/88D/90M mutation to EC50 for wild type HIV1 NL4-3 in HEK293 cells after 48 hrs by replication-deffective luciferase reporter gene-based phenotypic assay; type: functional
[18] = tested on: Human immunodeficiency virus 1; test: Resistance index, ratio of EC50 for HIV1 with protease 33F/54L/82A/90M mutation to EC50 for wild type HIV1 NL4-3 in HEK293 cells after 48 hrs by replication-deffective luciferase reporter gene-based phenotypic assay; type: functional
[19] = tested on: Human immunodeficiency virus 1; test: Resistance index, ratio of EC50 for HIV1 with protease 33F/54V/82A/84V mutation to EC50 for wild type HIV1 NL4-3 in HEK293 cells after 48 hrs by replication-deffective luciferase reporter gene-based phenotypic assay; type: functional
[20] = tested on: Human immunodeficiency virus 1; test: Resistance index, ratio of EC50 for HIV1 with protease 33F/54V/82T/84V/90M mutation to EC50 for wild type HIV1 NL4-3 in HEK293 cells after 48 hrs by replication-deffective luciferase reporter gene-based phenotypic assay; type: functional
[21] = tested on: Human immunodeficiency virus 1; test: Resistance index, ratio of EC50 for HIV1 with protease 33F/46L/53L/54V/82A mutation to EC50 for wild type HIV1 NL4-3 in HEK293 cells after 48 hrs by replication-deffective luciferase reporter gene-based phenotypic assay; type: functional
[22] = tested on: Human immunodeficiency virus 1; test: Resistance index, ratio of EC50 for HIV1 with protease 46L/54V/82A/90M mutation to EC50 for wild type HIV1 NL4-3 in HEK293 cells after 48 hrs by replication-deffective luciferase reporter gene-based phenotypic assay; type: functional
[23] = tested on: Human immunodeficiency virus 1; test: Resistance index, ratio of EC50 for HIV1 with protease 46I/54V/82A/84V mutation to EC50 for wild type HIV1 NL4-3 in HEK293 cells after 48 hrs by replication-deffective luciferase reporter gene-based phenotypic assay; type: functional
[24] = tested on: Human immunodeficiency virus 1; test: Resistance index, ratio of EC50 for HIV1 with protease 46L/54V/73C/84V/90M mutation to EC50 for wild type HIV1 NL4-3 in HEK293 cells after 48 hrs by replication-deffective luciferase reporter gene-based phenotypic assay; type: functional
[25] = tested on: Human immunodeficiency virus 1; test: Resistance index, ratio of EC50 for HIV1 with protease 46I/82A/84V/90M mutation to EC50 for wild type HIV1 NL4-3 in HEK293 cells after 48 hrs by replication-deffective luciferase reporter gene-based phenotypic assay; type: functional
[26] = tested on: Human immunodeficiency virus 1; test: Resistance index, ratio of EC50 for HIV1 with protease 46L/48V/82A/84V/90M mutation to EC50 for wild type HIV1 NL4-3 in HEK293 cells after 48 hrs by replication-deffective luciferase reporter gene-based phenotypic assay; type: functional
[27] = tested on: Human immunodeficiency virus 1; test: Resistance index, ratio of EC50 for HIV1 with protease 48V/82A/84V/90M mutation to EC50 for wild type HIV1 NL4-3 in HEK293 cells after 48 hrs by replication-deffective luciferase reporter gene-based phenotypic assay; type: functional
[28] = tested on: Human immunodeficiency virus 1; test: Resistance index, ratio of EC50 for HIV1 with protease 46L/48V/82A/84V mutation to EC50 for wild type HIV1 NL4-3 in HEK293 cells after 48 hrs by replication-deffective luciferase reporter gene-based phenotypic assay; type: functional

Compound | Ratio EC50 [1] | Ratio EC50 [2] | Ratio EC50 [3] | Ratio EC50 [4] | Ratio EC50 [5] | Ratio EC50 [6] | Ki (Protease) | EC50 [7] | CC50 at 144 h [8] | EC50 [9] | Ratio EC50 [10] | Ratio EC50 [11] | Ratio EC50 [12] | Ratio EC50 [13] | Ratio EC50 [14] | Ratio EC50 [15] | Ratio EC50 [16] | Ratio EC50 [17] | Ratio EC50 [18] | Ratio EC50 [19] | also measured
COC(=O)N[C@H](C(=O)NCCCC[C@@H](CO)N(CC(C)C)S(=O)(=O)c1ccc(N)cc1)C(c1ccccc1)c1ccccc1 [PPL-100] | 4 | 0.9 | 8.3 | 0.8 | 1.1 | 0.5 | 0.036 nM | 16 nM | 37000 nM | 5.3 nM | 7 | 4.8 | 6.3 | 1.1 | 14.8 | 0.4 | 1.7 | 5.6 | 30.3 | 3.4 | Ratio EC50 [20]: 3.4; Ratio EC50 [21]: 5.5; Ratio EC50 [22]: 3.2; Ratio EC50 [23]: 3.7; Ratio EC50 [24]: 10.8; Ratio EC50 [25]: 10.1; Ratio EC50 [26]: 13.4; Ratio EC50 [27]: 13.5; Ratio EC50 [28]: 1.2
Cc1c(O)cccc1C(=O)N[C@@H](CSc1ccccc1)[C@H](O)CN1C[C@H]2CCCC[C@H]2C[C@H]1C(=O)NC(C)(C)C | 14 | 1.6 | 32.9 | 15 | 1.7 | 12.7 | 0.306 nM | 29 nM | 8000 nM | 5.8 nM | 33.1 | 27.1 | 27.9 | 25.4 | 10.4 | 4.6 | 14.5 | 10 | 10.4 | 5.8 | Ratio EC50 [20]: 14.9; Ratio EC50 [21]: 28.3; Ratio EC50 [22]: 14.1; Ratio EC50 [23]: 8.8; Ratio EC50 [24]: 82.6; Ratio EC50 [25]: 11.2; Ratio EC50 [26]: 43.6; Ratio EC50 [27]: 27.3; Ratio EC50 [28]: 5.9
COC(=O)N[C@H](C(=O)N[C@@H](Cc1ccccc1)[C@@H](O)CN(Cc1ccc(-c2ccccn2)cc1)NC(=O)[C@@H](NC(=O)OC)C(C)(C)C)C(C)(C)C [ATAZANAVIR] | 67.5 | 1.4 | 33.7 | 8.3 | 0.9 | 2.4 | 0.039 nM | 4 nM | 71000 nM | 1.5 nM | 50.5 | 32 | 38 | 28 | 9.5 | 3.1 | 18.9 | 14.7 | 7.5 | 5.5 | Ratio EC50 [20]: 14.1; Ratio EC50 [21]: 22.7; Ratio EC50 [22]: 11.8; Ratio EC50 [23]: 5.8; Ratio EC50 [24]: 55.2; Ratio EC50 [25]: 3.8; Ratio EC50 [26]: 91.6; Ratio EC50 [27]: 57.7; Ratio EC50 [28]: 21.5
